According to patent publication US7157083B2, “Compositions and methods for treating retroviral infections” (priority 1998, dated 2007):

What was measured:
IIIB (HIV IIIB virus) = assay: Study 4 sensitization, Turpin and standard macrophages: RT activity after IIIB challenge; type: cell-based
Description: (§1) Percent virus control (% VC) in the following tables is the mean RT activity (cpm) as a percentage of a virus control. Percent cell control (% CC) is the mean XTT absorbance as a percentage of a cell control.
Reverse transcriptase (RT) activity was measured in cell-free supernatants. Tritiated thymidine triphosphate (NEN) (TTP) was resuspended in distilled H2O at […]. Poly rA and oligo dT were prepared as a stock solution which was kept at −20° C. The RT reaction buffer was prepared fresh on a daily basis and consists of 125 μL 1.0 M EGTA, 125 μL d H2O, 110 μL 10% SDS, 50 μL 1.0 M Tris (pH 7.4), 50 μL 1.0 M DTT, and 40μ1.0 M MgCl2. These three solutions were mixed together in a ratio of 2 parts TTP, 1 part poly rA:oligo dT, and 1 part reaction buffer. Ten microliters of this reaction mixture was placed in a round bottom microtiter plate and 15 μL of virus containing supernatant was added and mixed. The plate was incubated at 37° C. in a water bath with a solid support to prevent submersion of the plate and incubated for 60 minutes. Following reaction, the reaction volume was spotted onto pieces of DE81 paper, washed 5 times for 5 minutes each in a 5% sodium phosphate buffer, 2 times for 1 minute each in distilled water, 2 times for 1 minute each in 70% ethanol, and then dried. Opti-Fluor O was added to each sample and incorporated radioactivity was quantitated utilizing a Wallace 1450 Microbetaplus liquid scintillation counter.
(§2) The macrophage plates were then washed with HBSS multiple times. Fresh mixed pha blast PBMCs (5×10e4/well) were placed on the macrophage cells, allowed to incubate for 72 hours and then harvested and reset in a fresh 96 well plate. The PBMCs were then challenged overnight with the respective virus (IIIB or Rojo) at a standard MOI for that virus. The PBMCs were 5× in plate spin washed with DPBS, incubated 24 hours, at which time 5×10e4 fresh pha blast PBMCs/well were added. The culture was incubated an additional 6 days and then assayed for RT activity.
(§3) Where viability corrections were conducted, they were performed by dividing the RT CPM value by the toxicity absorbance in order to compensate for well to well variations noted in the cell titer toxicity noted.

PBMCs = assay: Study 4 sensitization: cell viability; type: cell-based, human
Description: as §1, §2, §3

[1] = 0.097656 μg/mL, GP120IIIB Sensitized, Standard
[2] = 0.097656 μg/mL, IIIB Sensitized, Standard
[3] = 0.390625 μg/mL, GP120IIIB Sensitized, Turpin
[4] = 1.5625 μg/mL, GP120IIIB Sensitized, Turpin
[5] = 6.25 μg/mL, GP120IIIB Sensitized, Turpin
[6] = 6.25 μg/mL, IIIB Sensitized, Standard

## Hyaluronidase
IIIB (HIV IIIB virus); [1]
  RT activity % VC: 176.4%
IIIB (HIV IIIB virus); 0.097656 μg/mL, GP120IIIB Sensitized, Turpin
  RT activity % VC: 89.0%
IIIB (HIV IIIB virus); [2]
  RT activity % VC: 145.2%
IIIB (HIV IIIB virus); 0.097656 μg/mL, IIIB Sensitized, Turpin
  RT activity % VC: 98.7%
IIIB (HIV IIIB virus); 0.195313 μg/mL, GP120IIIB Sensitized, Standard
  RT activity % VC: 102.8%
IIIB (HIV IIIB virus); 0.195313 μg/mL, GP120IIIB Sensitized, Turpin
  RT activity % VC: 108.1%
IIIB (HIV IIIB virus); 0.195313 μg/mL, IIIB Sensitized, Standard
  RT activity % VC: 178.1%
IIIB (HIV IIIB virus); 0.195313 μg/mL, IIIB Sensitized, Turpin
  RT activity % VC: 95.8%
IIIB (HIV IIIB virus); 0.390625 μg/mL, GP120IIIB Sensitized, Standard
  RT activity % VC: 87.7%
IIIB (HIV IIIB virus); [3]
  RT activity % VC: 83.5%
IIIB (HIV IIIB virus); 0.390625 μg/mL, IIIB Sensitized, Standard
  RT activity % VC: 181.3%
IIIB (HIV IIIB virus); 0.78125 μg/mL, GP120IIIB Sensitized, Standard
  RT activity % VC: 94.5%
IIIB (HIV IIIB virus); 0.78125 μg/mL, GP120IIIB Sensitized, Turpin
  RT activity % VC: 105.6%
IIIB (HIV IIIB virus); 0.78125 μg/mL, IIIB Sensitized, Standard
  RT activity % VC: 129.9%
IIIB (HIV IIIB virus); 0.78125 μg/mL, IIIB Sensitized, Turpin
  RT activity % VC: 100.0%
IIIB (HIV IIIB virus); 1.5625 μg/mL, GP120IIIB Sensitized, Standard
  RT activity % VC: 100.7%
IIIB (HIV IIIB virus); [4]
  RT activity % VC: 58.0%
IIIB (HIV IIIB virus); 1.5625 μg/mL, IIIB Sensitized, Standard
  RT activity % VC: 203.0%
IIIB (HIV IIIB virus); 1.5625 μg/mL, IIIB Sensitized, Turpin
  RT activity % VC: 68.3%
IIIB (HIV IIIB virus); 3.125 μg/mL, GP120IIIB Sensitized, Standard
  RT activity % VC: 82.3%
IIIB (HIV IIIB virus); 3.125 μg/mL, GP120IIIB Sensitized, Turpin
  RT activity % VC: 71.2%
IIIB (HIV IIIB virus); 3.125 μg/mL, IIIB Sensitized, Standard
  RT activity % VC: 120.8%
IIIB (HIV IIIB virus); 6.25 μg/mL, GP120IIIB Sensitized, Standard
  RT activity % VC: 106.5%
IIIB (HIV IIIB virus); [5]
  RT activity % VC: 72.2%
IIIB (HIV IIIB virus); [6]
  RT activity % VC: 234.4%
IIIB (HIV IIIB virus); 6.25 μg/mL, IIIB Sensitized, Turpin
  RT activity % VC: 70.0%
IIIB (HIV IIIB virus); 25 μg/mL, GP120IIIB Sensitized, Standard
  RT activity % VC: 70.6%
IIIB (HIV IIIB virus); 25 μg/mL, GP120IIIB Sensitized, Turpin
  RT activity % VC: 52.1%
IIIB (HIV IIIB virus); 25 μg/mL, IIIB Sensitized, Standard
  RT activity % VC: 99.8%
IIIB (HIV IIIB virus); 25 μg/mL, IIIB Sensitized, Turpin
  RT activity % VC: 23.6%
IIIB (HIV IIIB virus); viability corrected, 0.097656 μg/mL, GP120IIIB Sensitized, Standard
  RT activity % VC: 105.6%
IIIB (HIV IIIB virus); viability corrected, 0.097656 μg/mL, GP120IIIB Sensitized, Turpin
  RT activity % VC: 116.0%
IIIB (HIV IIIB virus); viability corrected, 0.097656 μg/mL, IIIB Sensitized, Standard
  RT activity % VC: 103.7%
IIIB (HIV IIIB virus); viability corrected, 0.097656 μg/mL, IIIB Sensitized, Turpin
  RT activity % VC: 95.3%
IIIB (HIV IIIB virus); viability corrected, 0.195313 μg/mL, GP120IIIB Sensitized, Standard
  RT activity % VC: 83.8%
IIIB (HIV IIIB virus); viability corrected, 0.195313 μg/mL, GP120IIIB Sensitized, Turpin
  RT activity % VC: 111.2%
IIIB (HIV IIIB virus); viability corrected, 0.195313 μg/mL, IIIB Sensitized, Standard
  RT activity % VC: 141.1%
IIIB (HIV IIIB virus); viability corrected, 0.195313 μg/mL, IIIB Sensitized, Turpin
  RT activity % VC: 110.9%
IIIB (HIV IIIB virus); viability corrected, 0.390625 μg/mL, GP120IIIB Sensitized, Standard
  RT activity % VC: 74.2%
IIIB (HIV IIIB virus); viability corrected, 0.390625 μg/mL, GP120IIIB Sensitized, Turpin
  RT activity % VC: 122.4%
IIIB (HIV IIIB virus); viability corrected, 0.390625 μg/mL, IIIB Sensitized, Standard
  RT activity % VC: 177.8%
IIIB (HIV IIIB virus); viability corrected, 0.390625 μg/mL, IIIB Sensitized, Turpin
  RT activity % VC: 98.3%
IIIB (HIV IIIB virus); viability corrected, 0.78125 μg/mL, GP120IIIB Sensitized, Standard
  RT activity % VC: 100.5%
IIIB (HIV IIIB virus); viability corrected, 0.78125 μg/mL, GP120IIIB Sensitized, Turpin
  RT activity % VC: 115.4%
IIIB (HIV IIIB virus); viability corrected, 0.78125 μg/mL, IIIB Sensitized, Standard
  RT activity % VC: 117.6%
IIIB (HIV IIIB virus); viability corrected, 0.78125 μg/mL, IIIB Sensitized, Turpin
  RT activity % VC: 95.5%
IIIB (HIV IIIB virus); viability corrected, 1.5625 μg/mL, GP120IIIB Sensitized, Standard
  RT activity % VC: 97.2%
IIIB (HIV IIIB virus); viability corrected, 1.5625 μg/mL, GP120IIIB Sensitized, Turpin
  RT activity % VC: 74.4%
IIIB (HIV IIIB virus); viability corrected, 1.5625 μg/mL, IIIB Sensitized, Standard
  RT activity % VC: 189.1%
IIIB (HIV IIIB virus); viability corrected, 1.5625 μg/mL, IIIB Sensitized, Turpin
  RT activity % VC: 79.6%
IIIB (HIV IIIB virus); viability corrected, 3.125 μg/mL, GP120IIIB Sensitized, Standard
  RT activity % VC: 76.1%
IIIB (HIV IIIB virus); viability corrected, 3.125 μg/mL, GP120IIIB Sensitized, Turpin
  RT activity % VC: 79.0%
IIIB (HIV IIIB virus); viability corrected, 3.125 μg/mL, IIIB Sensitized, Standard
  RT activity % VC: 115.2%
IIIB (HIV IIIB virus); viability corrected, 3.125 μg/mL, IIIB Sensitized, Turpin
  RT activity % VC: 106.2%
IIIB (HIV IIIB virus); viability corrected, 6.25 μg/mL, GP120IIIB Sensitized, Standard
  RT activity % VC: 95.2%
IIIB (HIV IIIB virus); viability corrected, 6.25 μg/mL, GP120IIIB Sensitized, Turpin
  RT activity % VC: 96.0%
IIIB (HIV IIIB virus); viability corrected, 6.25 μg/mL, IIIB Sensitized, Standard
  RT activity % VC: 181.7%
IIIB (HIV IIIB virus); viability corrected, 6.25 μg/mL, IIIB Sensitized, Turpin
  RT activity % VC: 63.4%
IIIB (HIV IIIB virus); viability corrected, 25 μg/mL, GP120IIIB Sensitized, Standard
  RT activity % VC: 81.6%
IIIB (HIV IIIB virus); viability corrected, 25 μg/mL, GP120IIIB Sensitized, Turpin
  RT activity % VC: 54.1%
IIIB (HIV IIIB virus); viability corrected, 25 μg/mL, IIIB Sensitized, Standard
  RT activity % VC: 124.6%
IIIB (HIV IIIB virus); viability corrected, 25 μg/mL, IIIB Sensitized, Turpin
  RT activity % VC: 26.6%
PBMCs; [1]
  cell viability % CC: 167.6%
PBMCs; [2]
  cell viability % CC: 138.2%
PBMCs; [3]
  cell viability % CC: 67.6%
PBMCs; [4]
  cell viability % CC: 73.4%
PBMCs; [5]
  cell viability % CC: 73.2%
PBMCs; [6]
  cell viability % CC: 133.5%
PBMCs; 25 μg/mL, Rojo Sensitized, Turpin
  cell viability % CC: 75.0%
PBMCs; Table 9, 0.097656 μg/mL, GP120IIIB Sensitized, Standard
  cell viability % CC: 167.6%
PBMCs; Table 9, 0.097656 μg/mL, IIIB Sensitized, Standard
  cell viability % CC: 138.2%
PBMCs; Table 9, 0.390625 μg/mL, GP120IIIB Sensitized, Turpin
  cell viability % CC: 67.6%
PBMCs; Table 9, 1.5625 μg/mL, GP120IIIB Sensitized, Turpin
  cell viability % CC: 73.4%
PBMCs; Table 9, 6.25 μg/mL, GP120IIIB Sensitized, Turpin
  cell viability % CC: 73.2%
PBMCs; Table 9, 6.25 μg/mL, IIIB Sensitized, Standard
  cell viability % CC: 133.5%
PBMCs; Table 9, 25 μg/mL, Rojo Sensitized, Turpin
  cell viability % CC: 75.0%
